The record followed here is PubChem BioAssay (NCI).

Among the test systems are A498 renal; DU-145 prostate; HCT-15 colon; MDA-N; NCI-H23 lung; NCI/ADR-RES ovarian; SF-268 CNS; SW-620 colon; UO-31 renal; MALME-3M melanoma.
Common to all, as to assay: NCI-60 cell line screen, 48 h

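Growth conditions: 96-well plates. Treatment: test compound, 48 hours, 5 concentrations. Analysis: linear interpolation between bracketing concentrations; unreached endpoints set to highest concentration. TGI: total growth inhibition.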

As for `N#CCCN(CCC#N)c1ccc(C(N=Nc2ccccc2)=Nc2ccc(F)cc2)cc1`, the TGI in the test with A498 renal, with DU-145 prostate, with HCT-15 colon, with MDA-N, with NCI-H23 lung and in the test on NCI/ADR-RES ovarian was more than 100 µM throughout. For the same compound, the TGI in the test with SF-268 CNS, in the test with SW-620 colon and with UO-31 renal was more than 100 µM throughout.

`COc1ccc(-c2cc3cc(Cl)cc(Cl)c3oc2=O)cc1OC`: the TGI with A498 renal, in the test on DU-145 prostate, in the test with HCT-15 colon, in the test on MALME-3M melanoma, in the test with MDA-N and in the test with NCI-H23 lung was more than 100 µM throughout. Also, the TGI with NCI/ADR-RES ovarian, in the test with SF-268 CNS, with SW-620 colon and with UO-31 renal was more than 100 µM throughout.

Consider `Cc1cc(-c2ccccc2)nc2oc(=O)n(C)c12`, for which the TGI in the test on A498 renal, with DU-145 prostate, in the test with HCT-15 colon, with MALME-3M melanoma, in the test with MDA-N and in the test with NCI-H23 lung was more than 100 µM each time. In addition, the TGI with NCI/ADR-RES ovarian, in the test on SF-268 CNS, in the test with SW-620 colon and with UO-31 renal was more than 100 µM throughout.

For `O=C(Nc1nn(C(=O)c2cccnc2)c(=O)s1)c1ccc(Cl)cc1`, the TGI is more than 100 µM in the test on A498 renal; more than 100 µM in the test with DU-145 prostate; more than 100 µM in the test on HCT-15 colon; 91.5 µM in the test with MALME-3M melanoma; more than 100 µM in the test on MDA-N; more than 100 µM with NCI-H23 lung. Also, the TGI was more than 100 µM with NCI/ADR-RES ovarian, 40.4 µM in the test with SF-268 CNS, more than 100 µM in the test with SW-620 colon and 78.9 µM with UO-31 renal.

Consider `CC1=C(C(=O)OCCO[N+](=O)[O-])C(c2ccccc2[N+](=O)[O-])C(C(=O)OC(C)C)=C(C)N1` (stereo not given), for which the TGI was found to be 46.2 µM in the test with A498 renal; 50.4 µM in the test with DU-145 prostate; 30.9 µM with HCT-15 colon; 35.9 µM in the test on MALME-3M melanoma; 31.1 µM with MDA-N; 48.5 µM in the test with NCI-H23 lung. The TGI with NCI/ADR-RES ovarian was 51.7 µM; in the test on SF-268 CNS it was 47.1 µM; in the test on SW-620 colon, 39.9 µM; in the test on UO-31 renal, 26.2 µM.

In the case of `CCOC(=O)N1CCN(c2c(N)nc(C)[nH]c2=O)CC1`, the TGI with A498 renal, with DU-145 prostate, in the test on HCT-15 colon, in the test on MALME-3M melanoma, in the test with MDA-N and with NCI-H23 lung was more than 100 µM each time. Also, the TGI in the test with NCI/ADR-RES ovarian, with SF-268 CNS, in the test with SW-620 colon and with UO-31 renal was more than 100 µM in each case.

For the compound `CC(C)=CCc1c(O)cc2oc(-c3ccc(O)cc3O)cc(=O)c2c1O`, the TGI with A498 renal is more than 100 µM; in the test with DU-145 prostate, more than 84.8 µM; with HCT-15 colon, more than 63.2 µM; in the test with MALME-3M melanoma, 53.7 µM; in the test with MDA-N, 72.3 µM; with NCI-H23 lung, 58.2 µM. Moreover, the TGI is more than 94.4 µM with NCI/ADR-RES ovarian, more than 100 µM with SF-268 CNS, more than 100 µM with SW-620 colon and 93.9 µM in the test with UO-31 renal.

Regarding `CO[P@@]1(=O)O[C@@H](c2ccccc2)[C@H](O)[C@]1(O)c1ccccc1`, the TGI in the test with A498 renal, in the test on DU-145 prostate, with HCT-15 colon, with MALME-3M melanoma, in the test with MDA-N and with NCI-H23 lung was more than 100 µM each time. Besides, the TGI with NCI/ADR-RES ovarian, in the test on SF-268 CNS, in the test on SW-620 colon and in the test on UO-31 renal was more than 100 µM in each case.

In the case of `OC(CC(O)(C(F)(F)Cl)C(F)(F)Cl)c1ccccc1` (stereo not given), the TGI with A498 renal is 0.0548 µM; with DU-145 prostate it was more than 10 µM; in the test with HCT-15 colon, more than 10 µM; in the test on MALME-3M melanoma it was more than 10 µM; with MDA-N it was more than 10 µM; in the test on NCI-H23 lung it was more than 10 µM. The TGI with NCI/ADR-RES ovarian, with SF-268 CNS and with SW-620 colon was more than 10 µM each time.

For `Nc1c(N2CCOCC2)c(=O)nc2[nH]/c(=C\c3ccccc3O)c(=O)n12`, the TGI in the test with A498 renal, in the test with DU-145 prostate, in the test on HCT-15 colon, in the test with MALME-3M melanoma, in the test on MDA-N and in the test on NCI-H23 lung was more than 100 µM throughout. For the same compound, the TGI with NCI/ADR-RES ovarian, in the test on SF-268 CNS, with SW-620 colon and in the test with UO-31 renal was more than 100 µM in each case.

For `CCN(CC)C(=S)N/N=C(/c1ccccc1)c1ccccn1`, the TGI is 2.38 µM with A498 renal; more than 65.9 µM in the test with DU-145 prostate; more than 36.9 µM in the test on HCT-15 colon; more than 47.1 µM in the test on MALME-3M melanoma; 26.1 µM in the test with MDA-N; more than 43.3 µM with NCI-H23 lung. Further, the TGI was 14.3 µM in the test with NCI/ADR-RES ovarian, more than 49.4 µM in the test on SW-620 colon and 9.52 µM in the test on UO-31 renal.

In the case of `Cc1c(C(=O)NNc2ccccc2)n2c(=S)[nH]nc2c2ccccc12`, the TGI in the test with A498 renal, with DU-145 prostate, in the test with HCT-15 colon, in the test with MDA-N, with NCI-H23 lung and with NCI/ADR-RES ovarian was more than 100 µM throughout. Also, the TGI in the test with SF-268 CNS, in the test on SW-620 colon and with UO-31 renal was more than 100 µM each time.

Take `CCOC(=O)c1c(SCc2cc(=O)[nH]c(=O)[nH]2)n(-c2ccccc2)c(=S)n(-c2ccccc2)c1=O`: the TGI in the test with A498 renal, in the test with DU-145 prostate, in the test with HCT-15 colon, in the test on MALME-3M melanoma, in the test with MDA-N and with NCI/ADR-RES ovarian was more than 100 µM throughout. Also, the TGI in the test on SF-268 CNS, in the test on SW-620 colon and in the test on UO-31 renal was more than 100 µM in each case.
